This test deals with T1, PIK3CG (p110 gamma) (Homo sapiens, UniProt P48736).
T1 construct: purchased Thermo Fisher Scientific (Life Technologies) SelectScreen
Nature of the test: SelectScreen Adapta. The class given is biochemical. The protocol:
The in vitro kinase selectivity of NU5455 was determined using the SelectScreen Broad Assay Panel (Thermo Fisher Scientific) involving activity and binding assays (Supplemental Table 1). […] Class IA PI3Ks were measured using the p85α subunit.
Kinase [ATP] % Assay Kinase [ATP] % Assay Kinase [ATP] % Assay Kinase [ATP] % Assay
DNA-PK Km app 98.3 Z LATS2 n/a 4.7 L KIT D820E n/a 1.3 L GSK3B (GSK3 beta) Km app -2.5 Z
PIK3C3 (hVPS34) Km app 85.9 A PRKCZ (PKC zeta) Km app 4.7 Z GRK1 n/a 1.3 L BMPR2 n/a -2.5 L
PIK3C2B (PI3K-C2 beta) 10 28.9 A FGFR1 Km app 4.7 Z BRSK2 n/a 1.2 L CDC42 BPB (MRCKB) Km app -2.5 Z
SNF1LK2 Km app 26.6 Z MINK1 Km app 4.6 Z NUAK1 (ARK5) Km app 1.2 A AMPK (A2/B2/G2) n/a -2.6 L
HCK Km app 18.0 Z CSF1R (FMS) Km app 4.3 Z CDK9/cyclin K n/a 1.0 L PRKG1 Km app -2.7 Z
NEK2 Km app 17.8 Z CSNK1G3 (CK1 gamma 3) Km app 4.2 Z NUAK2 n/a 1.0 L KIT T670E n/a -2.8 L
ALK Km app 17.3 Z STK32C (YANK3) n/a 4.2 L CDK2/cyclin O n/a 0.9 L ERBB4 (HER4) Km app -2.8 Z
FGFR3 K650M n/a 16.5 L STK22D (TSSK1) Km app 4.2 Z CAMKK2 (CaMKK beta) n/a 0.9 L PLK4 n/a -2.8 L
SIK3 n/a 16.1 L TAOK3 (JIK) n/a 4.2 L FGFR3 Km app 0.9 Z GRK7 Km app -3.0 Z
LYN A Km app 15.2 Z RPS6KA4 (MSK2) Km app 4.2 Z ULK2 n/a 0.9 L MAPKAPK2 Km app -3.1 Z
BMPR1B (ALK6) n/a 14.5 L PTK2B (FAK2) Km app 4.2 Z KIT D816V n/a 0.9 L FGFR4 Km app -3.1 Z
INSRR (IRR) Km app 14.1 Z CLK2 Km app 4.1 Z CAMK1 (CaMK1) 10 0.8 A CASK n/a -3.1 L
PLK2 Km app 14.1 Z STK24 (MST3) Km app 4.1 Z PTK6 (Brk) Km app 0.7 Z GRK5 Km app -3.2 Z
PRKACA (PKA) Km app 14.0 Z CAMK1D (CaMKI delta) Km app 4.1 Z CAMK2B (CaMKII beta) Km app 0.7 Z EGFR (ErbB1) T790M Km app -3.3 Z
EIF2AK2 (PKR) n/a 13.3 L INSR Km app 4.1 Z ACVR1 (ALK2) n/a 0.7 L PAK4 Km app -3.3 Z
PRKX Km app 12.5 Z IRAK1 Km app 4.0 A ABL1 H396P n/a 0.6 L DAPK3 (ZIPK) Km app -3.4 Z
FGR Km app 12.1 Z SRC N1 Km app 3.9 Z MERTK (cMER) A708S n/a 0.6 L RET M918T n/a -3.5 L
CLK1 Km app 11.7 Z SRPK2 Km app 3.9 Z MAPKAPK5 (PRAK) Km app 0.6 Z PRKCQ (PKC theta) Km app -3.7 Z
MARK3 Km app 11.4 Z RPS6KA6 (RSK4) Km app 3.8 Z AKT1 (PKB alpha) Km app 0.5 Z CAMKK1 (CAMKKA) n/a -3.8 L
PDGFRB (PDGFR beta) Km app 11.0 Z GRK6 Km app 3.7 Z NTRK3 (TRKC) Km app 0.4 Z FLT3 D835Y Km app -3.9 Z
PRKCN (PKD3) Km app 10.7 Z PKN1 (PRK1) Km app 3.6 Z ZAP70 Km app 0.3 Z ROCK2 Km app -4.1 Z
STK16 (PKL12) n/a 10.5 L MAP3K8 (COT) 100 3.5 Z CSNK1A1 (CK1 alpha 1) Km app 0.3 Z CHUK (IKK alpha) Km app -4.2 A
FES (FPS) Km app 10.4 Z FLT4 (VEGFR3) Km app 3.5 Z MYLK (MLCK) n/a 0.2 L AXL Km app -4.2 Z
ABL1 Km app 10.4 Z GRK4 Km app 3.5 Z MKNK2 (MNK2) n/a 0.2 L PIM2 Km app -4.3 Z
MUSK Km app 10.3 Z FRK (PTK5) Km app 3.4 Z AMPK (A1/B1/G3) n/a 0.2 L PAK1 Km app -4.4 Z
MAPK1 (ERK2) Km app 10.1 Z FYN A n/a 3.3 L MAP3K2 (MEKK2) n/a 0.1 L BMPR1A (ALK3) n/a -4.4 L
BRAF 100 9.9 Z CDK1/cyclin A2 n/a 3.3 L CDK8/cyclin C n/a 0.1 L STK4 (MST1) Km app -4.4 Z
IGF1R Km app 9.7 Z KIT V559D T670I n/a 3.1 L MARK2 Km app 0.1 Z PRKCH (PKC eta) Km app -4.6 Z
MAPK14 (p38 alpha) Km app 9.7 Z SPHK2 10 3.1 A ICK n/a 0.0 L SGKL (SGK3) Km app -4.6 Z
LCK Km app 9.6 Z FGFR3 G697C n/a 3.1 L FGFR2 Km app 0.0 Z PI4KB (PI4K beta) Km app -4.7 A
MAPK11 (p38 beta) Km app 9.5 Z RIPK2 n/a 3.1 L AKT2 (PKB beta) Km app 0.0 Z PRKCE (PKC epsilon) Km app -4.9 Z
SRC Km app 9.5 Z PAK6 Km app 3.0 Z EPHB2 Km app -0.1 Z PHKG1 Km app -5.0 Z
CHEK1 (CHK1) Km app 9.3 Z LYN B Km app 3.0 Z TGFBR2 n/a -0.1 L PDGFRA D842V Km app -5.0 Z
CAMK2D (CaMKII delta) Km app 9.3 Z DAPK2 n/a 2.9 L TEK (Tie2) Km app -0.1 Z PRKG2 (PKG2) Km app -5.1 Z
PLK1 Km app 9.2 Z EPHA4 Km app 2.9 Z AURKA (Aurora A) Km app -0.1 Z TYRO3 (RSE) Km app -5.1 Z
RET Y791F Km app 9.2 Z PIK3CG (p110 gamma) Km app 2.9 A KIT D816H n/a -0.2 L TAOK2 (TAO1) Km app -5.1 Z
FLT3 Km app 9.1 Z HIPK1 (Myak) Km app 2.8 Z KIT N822K n/a -0.2 L EPHB4 Km app -5.3 Z
MAPK10 (JNK3) 100 9.0 Z ADRBK2 (GRK3) Km app 2.8 Z PRKACG (PRKAC gamma) n/a -0.2 L AURKC (Aurora C) Km app -5.4 Z
CSNK2A2 (CK2 alpha 2) Km app 8.7 Z STK17B (DRAK2) n/a 2.7 L TEK (TIE2) Y1108F n/a -0.3 L JAK1 Km app -5.7 Z […]

We go through 1 molecule from article PMC6934184, “Selective DNA-PKcs inhibition extends the therapeutic index of localized radiotherapy and chemotherapy” (The Journal of Clinical Investigation, 2019).

T1 sequence (P48736 whole entry): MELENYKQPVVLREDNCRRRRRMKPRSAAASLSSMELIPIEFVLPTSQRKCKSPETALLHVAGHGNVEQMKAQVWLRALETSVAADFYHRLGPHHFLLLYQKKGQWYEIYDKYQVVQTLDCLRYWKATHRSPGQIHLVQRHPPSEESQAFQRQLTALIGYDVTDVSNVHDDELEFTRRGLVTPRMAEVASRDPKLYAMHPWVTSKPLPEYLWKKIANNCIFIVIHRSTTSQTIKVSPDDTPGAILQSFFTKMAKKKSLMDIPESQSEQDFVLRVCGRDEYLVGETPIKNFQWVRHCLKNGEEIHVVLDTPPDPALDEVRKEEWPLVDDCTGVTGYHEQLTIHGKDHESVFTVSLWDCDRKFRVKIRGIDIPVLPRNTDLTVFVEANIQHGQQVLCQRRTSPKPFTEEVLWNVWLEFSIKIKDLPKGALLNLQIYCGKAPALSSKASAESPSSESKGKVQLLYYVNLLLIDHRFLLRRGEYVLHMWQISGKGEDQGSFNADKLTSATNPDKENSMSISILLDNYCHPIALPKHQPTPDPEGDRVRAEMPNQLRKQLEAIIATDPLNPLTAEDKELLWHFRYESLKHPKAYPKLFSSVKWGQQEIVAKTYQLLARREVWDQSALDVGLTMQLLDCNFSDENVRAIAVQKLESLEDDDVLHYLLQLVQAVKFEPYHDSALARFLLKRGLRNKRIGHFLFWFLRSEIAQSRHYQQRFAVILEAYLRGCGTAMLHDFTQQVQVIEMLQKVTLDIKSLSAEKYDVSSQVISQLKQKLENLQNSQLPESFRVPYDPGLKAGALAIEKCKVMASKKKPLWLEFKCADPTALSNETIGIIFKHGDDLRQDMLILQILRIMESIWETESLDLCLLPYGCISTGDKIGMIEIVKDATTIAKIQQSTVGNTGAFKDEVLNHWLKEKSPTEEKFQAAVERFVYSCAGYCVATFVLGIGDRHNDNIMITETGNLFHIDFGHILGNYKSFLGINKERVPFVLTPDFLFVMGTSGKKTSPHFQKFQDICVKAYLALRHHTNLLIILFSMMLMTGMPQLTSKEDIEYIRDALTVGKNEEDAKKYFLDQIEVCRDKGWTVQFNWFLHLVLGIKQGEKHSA

As a reminder, the inhibition is the share of the control response that was lost under treatment. A higher inhibition goes with a response far below the control. Molecule `CN(C(=O)CN1CCOCC1)c1ccc2sc3c(-c4cccc5c(=O)cc(N6CC7CCC(C6)O7)oc45)cccc3c2c1` [NU5455] yielded an inhibition at 1 µM of 2.9%.
